# From US20070059264A1, “Reduction of hair growth” (priority 2005, published 2007)
# Tested on: axillary (armpit) hair growth
# Test: Axillary hair growth reduction in human subjects (hair length by image analysis)
# Format: in vivo
# Settings: for Hair Length (μm): Example 1 including 3% DFMO once a day to armpit, six human subjects; for % Reduction (hair length): Example 1 including 3% DFMO vs Right Guard roll-on vehicle
# Description: Example 1, including 3% DFMO, was tested in six human subjects to determine the effectiveness of the composition for reducing hair growth. The composition was applied once a day to one armpit in a subject; Right Guard® roll-on product was applied once daily to the other armpit. The hair length measurements were made at select time intervals using a semi automated image analysis system. For these measurements, the subjects shaved both armpits and then digital images of the treatment areas (DFMO and Vehicle) were taken at 24, 48, and 72 hr later. The number of hairs measured per site ranged from 58 to 87.
# The results after six weeks and 16 weeks are shown below.
# [1] = after 6 weeks, 24 Hrs after shaving
# [2] = after 6 weeks, 48 Hrs after shaving
# [3] = after 6 weeks, 72 Hrs after shaving
# [4] = after 16 weeks, 24 Hrs after shaving
# [5] = after 16 weeks, 48 Hrs after shaving
# [6] = after 16 weeks, 72 Hrs after shaving
structure (smiles),measurement,setting,value
"NCCCC(N)(C(=O)O)C(F)F (stereo not drawn) [DFMO, α-Difluoromethylomithine]",Hair Length (μm),[1],274 ± 15 μm
same,% Reduction (hair length),[1],48 ± 3%
same,Hair Length (μm),[2],509 ± 26 μm
same,% Reduction (hair length),[2],49 ± 3%
same,Hair Length (μm),[3],867 ± 34 μm
same,% Reduction (hair length),[3],46 ± 2%
same,Hair Length (μm),[4],170 ± 16 μm
same,% Reduction (hair length),[4],66 ± 3%
same,Hair Length (μm),[5],273 ± 23 μm
same,% Reduction (hair length),[5],73 ± 3%
same,Hair Length (μm),[6],326 ± 24 μm
same,% Reduction (hair length),[6],75 ± 2%
